Results from ChEMBL document CHEMBL1201862, “PubChem BioAssay data set” (2004).
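96-well plates; 48 h exposure; 5 concentrations. Endpoints by linear interpolation between flanking doses. Not reached: highest tested concentration assigned. Abbreviation: GI50, concentration required for 50% inhibition of growth.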 Calls of active or inactive are those of the source. No stated cut-off is given here; in the data, active = GI50 up to about 1.1 µM and inactive = higher.

Legend:
Assay in all cases: NCI-60 cell line screen, 48 h
SF-295 = tested on: SF-295
MDA-N = tested on: MDA-N
RPMI-8226 = tested on: RPMI-8226
HL-60 = tested on: HL-60
HOP-62 = tested on: HOP-62
MDA-MB-435 = tested on: MDA-MB-435
U-251 = tested on: U-251
SR = tested on: SR
UACC-257 = tested on: UACC-257
NCI-H23 = tested on: NCI-H23
OVCAR-3 = tested on: OVCAR-3
HCT-15 = tested on: HCT-15
OVCAR-4 = tested on: OVCAR-4
BT-549 = tested on: BT-549
K562 = tested on: K562
MCF7 = tested on: MCF7
HCC 2998 = tested on: HCC 2998
TK-10 = tested on: TK-10
SK-OV-3 = tested on: SK-OV-3

Compound: Cc1cn([C@@H]2C[C@H](CO)[C@@H]2O)c(=O)[nH]c1=O
- GI50 (SF-295): > 100 µM (inactive)
- GI50 (MDA-N): > 100 µM (inactive)
- GI50 (RPMI-8226): > 100 µM (inactive)
- GI50 (HL-60): > 100 µM (inactive)
- GI50 (HOP-62): > 100 µM (inactive)
- GI50 (MDA-MB-435): > 100 µM (inactive)
- GI50 (U-251): > 100 µM (inactive)
- GI50 (SR): > 100 µM (inactive)
- GI50 (UACC-257): > 100 µM (inactive)
- GI50 (NCI-H23): > 100 µM (inactive)
- GI50 (OVCAR-3): > 100 µM (inactive)
- GI50 (HCT-15): > 100 µM
- GI50 (OVCAR-4): > 100 µM (inactive)
- GI50 (BT-549): > 100 µM (inactive)
- GI50 (K562): > 100 µM (inactive)
- GI50 (MCF7): > 100 µM (inactive)
- GI50 (HCC 2998): > 100 µM (inactive)
- GI50 (TK-10): > 100 µM (inactive)

Compound: N/C(=N\n1c(=S)[nH]c2ccccc2c1=O)Nn1c(=S)[nH]c2ccccc2c1=O
- GI50 (SF-295): > 100 µM (inactive)
- GI50 (MDA-N): 24.7 µM (inactive)
- GI50 (RPMI-8226): 22.4 µM (inactive)
- GI50 (SK-OV-3): > 100 µM (inactive)
- GI50 (HOP-62): 36.4 µM (inactive)
- GI50 (MDA-MB-435): 36.9 µM (inactive)
- GI50 (U-251): 27.9 µM (inactive)
- GI50 (SR): 20.3 µM (inactive)
- GI50 (UACC-257): > 100 µM (inactive)
- GI50 (NCI-H23): 23.1 µM (inactive)
- GI50 (OVCAR-3): > 100 µM (inactive)
- GI50 (HCT-15): 22.6 µM
- GI50 (OVCAR-4): 49.9 µM (inactive)
- GI50 (BT-549): 20.3 µM (inactive)
- GI50 (K562): 26.6 µM (inactive)
- GI50 (MCF7): 33.7 µM (inactive)
- GI50 (HCC 2998): > 100 µM (inactive)
- GI50 (TK-10): > 100 µM (inactive)

Compound: CC(=O)Nc1ccccc1C=C1c2ccccc2-c2ccccc21
- GI50 (SF-295): 20.9 µM (inactive)
- GI50 (MDA-N): > 100 µM (inactive)
- GI50 (RPMI-8226): 50.2 µM (inactive)
- GI50 (HL-60): > 100 µM (inactive)
- GI50 (HOP-62): 19.5 µM (inactive)
- GI50 (MDA-MB-435): > 100 µM (inactive)
- GI50 (U-251): 23.2 µM (inactive)
- GI50 (SR): 98.9 µM (inactive)
- GI50 (UACC-257): 56.8 µM (inactive)
- GI50 (NCI-H23): 25.2 µM (inactive)
- GI50 (OVCAR-3): 25.1 µM (inactive)
- GI50 (HCT-15): 45.8 µM
- GI50 (OVCAR-4): 27.9 µM (inactive)
- GI50 (BT-549): 24.8 µM (inactive)
- GI50 (K562): 51.9 µM (inactive)
- GI50 (MCF7): 20.9 µM (inactive)
- GI50 (HCC 2998): 84.9 µM (inactive)
- GI50 (TK-10): 31.3 µM (inactive)

Compound: O=c1c2c3c(sc2nc2n1N=CN(c1ccccc1)C2)CCCC3
- GI50 (SF-295): > 100 µM (inactive)
- GI50 (MDA-N): > 100 µM (inactive)
- GI50 (RPMI-8226): > 100 µM (inactive)
- GI50 (SK-OV-3): > 100 µM (inactive)
- GI50 (HOP-62): > 100 µM (inactive)
- GI50 (MDA-MB-435): > 100 µM (inactive)
- GI50 (U-251): > 100 µM (inactive)
- GI50 (SR): > 100 µM (inactive)
- GI50 (UACC-257): > 100 µM (inactive)
- GI50 (NCI-H23): > 100 µM (inactive)
- GI50 (OVCAR-3): > 100 µM (inactive)
- GI50 (HCT-15): > 100 µM
- GI50 (OVCAR-4): > 100 µM (inactive)
- GI50 (BT-549): > 100 µM (inactive)
- GI50 (K562): > 100 µM (inactive)
- GI50 (MCF7): > 100 µM (inactive)
- GI50 (HCC 2998): > 100 µM (inactive)
- GI50 (TK-10): > 100 µM (inactive)

Compound: O=C1NC(=S)N/C1=C\c1ccc(Sc2ccccc2C(=O)O)s1
- GI50 (SF-295): > 100 µM (inactive)
- GI50 (MDA-N): > 100 µM (inactive)
- GI50 (RPMI-8226): > 100 µM (inactive)
- GI50 (HL-60): 44.8 µM (inactive)
- GI50 (HOP-62): > 100 µM (inactive)
- GI50 (MDA-MB-435): > 100 µM (inactive)
- GI50 (U-251): > 100 µM (inactive)
- GI50 (SR): > 100 µM (inactive)
- GI50 (UACC-257): > 100 µM (inactive)
- GI50 (NCI-H23): > 100 µM (inactive)
- GI50 (OVCAR-3): > 100 µM (inactive)
- GI50 (HCT-15): > 100 µM
- GI50 (OVCAR-4): > 100 µM (inactive)
- GI50 (BT-549): > 100 µM (inactive)
- GI50 (K562): 93.5 µM (inactive)
- GI50 (MCF7): > 100 µM (inactive)
- GI50 (HCC 2998): > 100 µM (inactive)
- GI50 (TK-10): > 100 µM (inactive)

Compound: CCOC(=O)C1=C(N)N2C(=N[C@H]3CCCC[C@@H]32)N=C1
- GI50 (SF-295): > 100 µM (inactive)
- GI50 (MDA-N): > 100 µM (inactive)
- GI50 (RPMI-8226): > 100 µM (inactive)
- GI50 (HL-60): > 100 µM (inactive)
- GI50 (SK-OV-3): > 100 µM (inactive)
- GI50 (MDA-MB-435): > 100 µM (inactive)
- GI50 (U-251): > 100 µM (inactive)
- GI50 (SR): > 100 µM (inactive)
- GI50 (UACC-257): > 100 µM (inactive)
- GI50 (NCI-H23): > 100 µM (inactive)
- GI50 (OVCAR-3): > 100 µM (inactive)
- GI50 (HCT-15): > 100 µM
- GI50 (OVCAR-4): 37 µM (inactive)
- GI50 (BT-549): > 100 µM (inactive)
- GI50 (K562): > 100 µM (inactive)
- GI50 (MCF7): > 100 µM (inactive)
- GI50 (HCC 2998): > 100 µM (inactive)
